The structures appear in SMILES notation. Some results are limits rather than exact numbers.

Data on 19 molecules can be found in patent US9056876B2, “Substituted 1H-pyrazolo[3′,4′,4,5]thieno[2,3-b]pyridin-3-amine analogs as positive allosteric modulators of the muscarinic acetylcholine receptor M4” (VANDERBILT UNIVERSITY, priority 2011, dated 2015).

The target of the assay is T1, mAChR M4 (UniProt P08173).
T1 construct: hM1 and hM4 cDNAs were purchased from Missouri S&T cDNA Resource
T1 sequence (P08173 1-479): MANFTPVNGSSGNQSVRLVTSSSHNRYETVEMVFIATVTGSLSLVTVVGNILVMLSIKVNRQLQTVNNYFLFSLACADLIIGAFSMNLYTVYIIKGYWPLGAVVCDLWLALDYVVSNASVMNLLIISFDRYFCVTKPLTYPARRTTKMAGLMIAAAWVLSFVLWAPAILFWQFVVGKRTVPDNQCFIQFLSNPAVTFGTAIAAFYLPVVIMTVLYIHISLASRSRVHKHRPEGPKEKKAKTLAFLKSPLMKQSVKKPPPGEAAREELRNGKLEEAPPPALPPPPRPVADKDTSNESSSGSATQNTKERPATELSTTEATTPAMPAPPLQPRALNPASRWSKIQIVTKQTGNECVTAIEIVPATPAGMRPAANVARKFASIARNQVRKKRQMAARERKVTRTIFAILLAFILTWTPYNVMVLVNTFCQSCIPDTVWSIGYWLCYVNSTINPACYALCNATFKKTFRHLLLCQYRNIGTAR
Nature of the assay: mAChR M4 cell-based functional assay (calcium mobilization, Fluo-4, FDSS). The following applies: for Emax (%)*: % ACh maximum at 30 μM; for pEC50: positive allosteric modulator activity, EC20 acetylcholine response; for pEC50 / EC50: CHO-K1 cells; for EC50: positive allosteric modulator activity: concentration-dependent increase in the EC20 acetylcholine response, >10 μM estimated for low potency (no plateau). The source says:
Chinese hamster ovary (CHO-K1) cells stably expressing rat (r)M1 were purchased from the American Type Culture Collection and cultured according to their indicated protocol. CHO cells stably expressing human (h)M2, hM3, and hM5 were described previously (Levey A I, et al., (1991) J Neurosci 11:3218-3226.); hM1 and hM4 cDNAs were purchased from Missouri S&T cDNA Resource; rM4 cDNA was provided by T. I. Bonner (National Institutes of Health, Bethesda, Md.). rM2 and rM3 were cloned from a rat brain cDNA library and sequence verified. hM1, rM2, rM3, hM4, and rM4 cDNAs were used to stably transfect CHO-K1 cells purchased from the American Type Culture Collection using Lipofectamine-2000. To make stable rM2, hM2, rM3, hM4, and rM4 cell lines for use in calcium mobilization assays, these cells also were stably transfected with a chimeric G-protein (Gqi5) (provided by B. R. Conklin, University of California, San Francisco) using Lipofectamine 2000. rM1, hM1, rM3, hM3, rM5, and hM5 cells were grown in Ham's F-12 medium containing 10% heat-inactivated fetal bovine serum (FBS), 20 mM HEPES, and 50 µg/mL G418 sulfate. rM2-Gqi5, hM2-Gqi5, and hM4-Gqi5 cells were grown in the same medium also containing 500 µg/mL Hygromycin B. Stable rM4-Gqi5 cells were grown in DMEM containing 10% heat-inactivated FBS, 20 mM HEPES, 400 µg/mL G418 sulfate, and 500 µg/mL Hygromycin B.
For high throughput measurement of agonist-evoked increases in intracellular calcium, CHO-K1 cells stably expressing the target muscarinic receptor were plated in growth medium lacking G418 and hygromycin at 15,000 cells/20 μL/well in Greiner 384-well black-walled, tissue culture (TC)-treated, clear-bottom plates (VWR). Cells were incubated overnight at 37° C. and 5% CO2. The next day, cells were washed using an ELX 405 (BioTek) with four washes (80 μL) of assay buffer then aspirated to 20 μL. Next, […] of 16 μM Fluo-4/acetoxymethyl ester (Invitrogen, Carlsbad, Calif.) prepared as a 2.3 mM stock in DMSO and mixed in a 1:1 ratio with 10% (w/v) Pluronic F-127 and diluted in assay buffer was added to the wells and the cell plates were incubated for 50 min at 37° C. and 5% CO2. Dye was removed by washing with the ELX 405 (four 80 μL washes of assay buffer) then aspirated to 20 μL. Compound master plates were formatted in an 11 point CRC format (1:3 dilutions) in 100% DMSO with a starting concentration of 10 mM using the BRAVO liquid handler (Agilent). Test compound CRCs were then transferred to daughter plates (240 nL) using the Echo acoustic plate reformatter (Labcyte, Sunnyvale, Calif.) and then diluted into assay buffer (40 μL) to a 2× stock using a Thermo Fisher Combi (Thermo Fisher Scientific, Waltham, Mass.).
Calcium flux was measured using the Functional Drug Screening System (FDSS) 6000 (Hamamatsu Corporation, Tokyo, Japan) as an increase in the fluorescent static ratio. Compounds were applied to cells (20 μL, 2×) using the automated system of the FDSS 6000 at 4 s into the 300 s protocol and the data were collected at 1 Hz. At 144 s into the 300 s protocol, 10 μL of an EC20 concentration of the muscarinic receptor agonist acetylcholine was added (5×), followed by the addition of 12 μL an EC80 concentration of acetylcholine at the 230 s time point (5×). Agonist activity was analyzed as a concentration-dependent increase in calcium mobilization upon compound addition. Positive allosteric modulator activity was analyzed as a concentration-dependent increase in the EC20 acetylcholine response. Antagonist activity was analyzed as a concentration-dependent decrease in the EC80 acetylcholine response. Concentration-response curves were generated using a four-parameter logistical equation in XLfit curve fitting software (IDBS, Bridgewater, N.J.) for Excel (Microsoft, Redmond, Wash.) or Prism (GraphPad Software, Inc., San Diego, Calif.). […]

As usually defined, the pEC50 is −log10 of the EC50, conventionally taken in molar units. Usually EC50 stands for the concentration that produces a half-maximal response. Turning to `Cc1cc(C)c2c(n1)sc1c(NCc3ccccc3F)n[nH]c12` [Compound 9, N-(2-fluorobenzyl)-6,8-dimethyl-1H-pyrazolo[3′,4′:4,5]thieno[2,3-b]pyridin-3-amine], the “Emax (%)*” value is recorded as 43%, the pEC50 stood at 5.98 and the EC50 is 1050 nM.
Regarding `Cc1cc(C)c2c(n1)sc1c(NCc3cc(C)on3)nn(C)c12` [Compound 97, 1,6,8-trimethyl-N-((5-methylisoxazol-3-yl)methyl)-1H-pyrazolo[3′,4′:4,5]thieno[2,3-b]pyridin-3-amine], the “Emax (%)*” value is given as 59%, the negative-log EC50 (pEC50) was determined as 5.43 and the 50% effective concentration (EC50) was 3700 nM.
On the same counts, the results for `COCCn1nc(NCc2ccc(S(C)(=O)=O)cc2)c2sc3nc(C)cc(C)c3c21` [Compound 119, 1-(2-methoxyethyl)-6,8-dimethyl-N-(4-(methylsulfonyl)benzyl)-1H-pyrazolo[3′,4′:4,5]thieno[2,3-b]pyridin-3-amine] are 65%, 5.92 and 1200 nM.
The matching figures for `Cc1cc(C)c2c(n1)sc1c(NCc3ccc(C)o3)nn(C)c12` [Compound 78, 1,6,8-trimethyl-N-((5-methylfuran-2-yl)methyl)-1H-pyrazolo[3′,4′:4,5]thieno[2,3-b]pyridin-3-amine]: 84%, 7.05 and 90 nM.
On the same counts, the results for `Cc1cc(C)c2c(n1)sc1c(NCC3CCNCC3)nn(C)c12` [Compound 123, 1,6,8-trimethyl-N-(piperidin-4-ylmethyl)-1H-pyrazolo[3′,4′:4,5]thieno[2,3-b]pyridin-3-amine] are 30%, less than 5.00 and greater than 10000 nM.
Turning to `Cc1cc(C)c2c(n1)sc1c(NC(=O)C3CC3)nn(C)c12` [Compound 46, N-(1,6,8-trimethyl-1H-pyrazolo[3′,4′:4,5]thieno[2,3-b]pyridin-3-yl)cyclopropanecarboxamide], the “Emax (%)*” value turned out to be 44%, the pEC50 is less than 5.00 and the concentration for a half-maximal effect (EC50) is greater than 10000 nM.
In the case of `Cc1cc(C)c2c(n1)sc1c(NC(=O)c3ccccc3)n[nH]c12` [Compound 130, N-(6,8-dimethyl-1H-pyrazolo[3′,4′:4,5]thieno[2,3-b]pyridin-3-yl)benzamide], the negative-log EC50 (pEC50) was less than 5.00 and the EC50 was greater than 10000 nM.
For `Cc1nc2sc3c(NCc4ccccc4)nn(C)c3c2c(C)c1Cl` [Compound 17, N-benzyl-7-chloro-1,6,8-trimethyl-1H-pyrazolo[3′,4′:4,5]thieno[2,3-b]pyridin-3-amine], the “Emax (%)*” value was determined as 39%, the pEC50 was less than 5.00 and the concentration giving a half-maximal response (EC50) is greater than 10000 nM.
On the same counts, the results for `Cc1cc(C)c2c(n1)sc1c(NCc3ccccc3)nn(C)c12` [Compound 33, N-benzyl-1,6,8-trimethyl-1H-pyrazolo[3′,4′:4,5]thieno[2,3-b]pyridin-3-amine] are 75%, 6.89 and 130 nM.
On the same counts, the results for `Cc1nc2sc3c(NCC4CC4)n[nH]c3c2c(C)c1Cl` [Compound 14, 7-chloro-N-(cyclopropylmethyl)-6,8-dimethyl-1H-pyrazolo[3′,4′:4,5]thieno[2,3-b]pyridin-3-amine] are 69%, 5.80 and 1600 nM.
For `Cc1cc(C)c2c(n1)sc1c(NCc3cccs3)nn(CCO)c12` [Compound 101, 2-(6,8-dimethyl-3-((thiophen-2-ylmethyl)amino)-1H-pyrazolo[3′,4′:4,5]thieno[2,3-b]pyridin-1-yl)ethanol], the “Emax (%)*” value is 73%, the pEC50 worked out at 7.31 and the EC50 was 49 nM.
For the molecule `Cc1cc(C)c2c(n1)sc1c(NC3CCCC3)nn(C)c12` [Compound 64, N-cyclopentyl-1,6,8-trimethyl-1H-pyrazolo[3′,4′:4,5]thieno[2,3-b]pyridin-3-amine], the “Emax (%)*” value stood at 83%, the pEC50 came to 6.85 and the 50% effective concentration (EC50) is 140 nM.
In the case of `Cc1cc(C)c2c(n1)sc1c(NC3CCC(N)CC3)n[nH]c12` (stereo not shown) [Compound 138, N1-(6,8-dimethyl-1H-pyrazolo[3′,4′:4,5]thieno[2,3-b]pyridin-3-yl)cyclohexane-1,4-diamine], the negative-log EC50 (pEC50) is less than 5.00 and the EC50 is greater than 10000 nM.
Consider `COCCn1nc(NCc2ccco2)c2sc3nc(C)cc(C)c3c21` [Compound 167, N-(furan-2-ylmethyl)-1-(2-methoxyethyl)-6,8-dimethyl-1H-pyrazolo[3′,4′:4,5]thieno[2,3-b]pyridin-3-amine], for which the negative-log EC50 (pEC50) is on record as less than 5.00 and the concentration for a half-maximal effect (EC50) was greater than 10000 nM.
Turning to `Cc1nc2sc3c(NCC4CCCCC4)n[nH]c3c2c(C)c1Cl` [Compound 142, 7-chloro-N-(cyclohexylmethyl)-6,8-dimethyl-1H-pyrazolo[3′,4′:4,5]thieno[2,3-b]pyridin-3-amine], the negative-log EC50 (pEC50) is recorded as less than 5.00 and the EC50 was greater than 10000 nM.
Consider `Cc1cc(C)c2c(n1)sc1c(NC3CCCC3)nn(CCO)c12` [Compound 107, 2-(3-(cyclopentylamino)-6,8-dimethyl-1H-pyrazolo[3′,4′:4,5]thieno[2,3-b]pyridin-1-yl)ethanol], for which the “Emax (%)*” value amounted to 65%, the negative-log EC50 (pEC50) is on record as 6.70 and the EC50 is 200 nM.
For `Cc1cc(C)c2c(n1)sc1c(NC(=O)c3ccc(F)cc3)n[nH]c12` [Compound 128, N-(6,8-dimethyl-1H-pyrazolo[3′,4′:4,5]thieno[2,3-b]pyridin-3-yl)-4-fluorobenzamide], the pEC50 is given as less than 5.00 and the EC50 is greater than 10000 nM.
Regarding `Cc1cc(C)c2c(n1)sc1c(NCc3ccc4c(c3)OCCO4)nn(C)c12` [Compound 87, N-((2,3-dihydrobenzo[b][1,4]dioxin-6-yl)methyl)-1,6,8-trimethyl-1H-pyrazolo[3′,4′:4,5]thieno[2,3-b]pyridin-3-amine], the “Emax (%)*” value was found to be 66%, the pEC50 is 6.80 and the concentration giving a half-maximal response (EC50) is 160 nM.
On the same counts, the results for `CCCn1nc(NCc2ccc(S(C)(=O)=O)cc2)c2sc3nc(C)cc(C)c3c21` [Compound 120, 6,8-dimethyl-N-(4-(methylsulfonyl)benzyl)-1-propyl-1H-pyrazolo[3′,4′:4,5]thieno[2,3-b]pyridin-3-amine] are 59%, less than 5.00 and greater than 10000 nM.
